Test results reported in PMC10157890, “Lysine Deacetylase Substrate Selectivity: Distinct Interaction Surfaces Drive Positive and Negative Selection for Residues Following Acetyllysine” (Biochemistry, 2023).

How the values were obtained:
[1] = target: T1, full-length human KDAC6 (Homo sapiens, UniProt Q9UBN7); assay: Activity of KDAC6 with putative substrate peptides (verification of substrate preferences); assay type: biochemical; settings: endpoint, 100 μM peptide, buffer also containing 100 mM KCl; for specific activity, KDAC6 with putative substrates: 50–200 nM KDAC, 25 °C, pH 7.6, 15–60 min, average ± SD, SD
T1 construct: A pFastbac1 construct containing full-length human KDAC6 (UniProtKB Q9UBN7) with a C-terminal His6 tag; His6 (C); made in house; host or cells: ExpiSf9 insect cells (baculovirus)
T1 sequence (Q9UBN7 1-1215): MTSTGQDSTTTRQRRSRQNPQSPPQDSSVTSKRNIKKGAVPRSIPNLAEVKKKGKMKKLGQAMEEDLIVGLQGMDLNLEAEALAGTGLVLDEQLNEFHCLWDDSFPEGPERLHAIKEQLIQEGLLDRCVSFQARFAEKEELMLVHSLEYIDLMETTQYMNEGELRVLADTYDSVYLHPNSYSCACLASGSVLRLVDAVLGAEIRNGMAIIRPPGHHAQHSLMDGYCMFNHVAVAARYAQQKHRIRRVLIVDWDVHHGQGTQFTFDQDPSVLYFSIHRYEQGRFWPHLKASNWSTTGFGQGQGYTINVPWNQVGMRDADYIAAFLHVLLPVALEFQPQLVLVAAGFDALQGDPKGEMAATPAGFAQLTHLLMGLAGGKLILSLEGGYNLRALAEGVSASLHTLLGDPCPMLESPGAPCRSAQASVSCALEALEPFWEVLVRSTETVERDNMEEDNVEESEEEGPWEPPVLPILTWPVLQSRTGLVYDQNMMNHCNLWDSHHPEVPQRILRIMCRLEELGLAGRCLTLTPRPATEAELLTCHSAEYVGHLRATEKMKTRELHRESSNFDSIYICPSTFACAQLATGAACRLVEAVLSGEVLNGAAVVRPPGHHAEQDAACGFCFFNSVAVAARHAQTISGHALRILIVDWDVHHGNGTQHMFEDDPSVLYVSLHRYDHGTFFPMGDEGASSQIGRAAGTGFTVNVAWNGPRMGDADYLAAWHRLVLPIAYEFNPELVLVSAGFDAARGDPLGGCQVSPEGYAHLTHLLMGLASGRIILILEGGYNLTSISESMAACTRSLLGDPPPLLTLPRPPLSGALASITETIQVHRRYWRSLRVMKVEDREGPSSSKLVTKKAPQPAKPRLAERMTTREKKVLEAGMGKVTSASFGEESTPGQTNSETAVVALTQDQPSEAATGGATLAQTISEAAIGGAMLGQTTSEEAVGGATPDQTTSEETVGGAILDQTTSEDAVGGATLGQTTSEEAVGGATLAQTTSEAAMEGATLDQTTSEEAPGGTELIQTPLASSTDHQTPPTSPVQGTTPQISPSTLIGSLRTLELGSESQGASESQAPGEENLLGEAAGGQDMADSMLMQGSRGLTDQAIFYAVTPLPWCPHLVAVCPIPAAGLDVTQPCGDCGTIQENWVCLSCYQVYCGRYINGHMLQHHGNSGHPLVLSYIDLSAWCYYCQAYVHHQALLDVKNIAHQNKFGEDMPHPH
Description: (§1) Peptide substrates were synthesized to >95% purity (GenScript) with N-terminal acetylation and C-terminal amidation. For endpoint experiments, 100 μM peptide substrates were reacted with 50–200 nM KDAC at 25 °C at pH 7.6 for 15–60 min. Deacetylation was measured using a fluorescamine-based assay that was previously described in detail.[18] Reported raw activity for each enzyme–substrate pair is the average and standard deviation for n ≥ 4 unless otherwise noted. Normalized activity was calculated by defining the activity of each KDAC with the FRK^acWR peptide equal to 1. Statistical significance was determined by calculating p values using two-tailed t-tests, assuming similar variance. The significance threshold was set at p ≤ 0.01 with the Bonferroni correction for multiple testing. Kinetic parameters were determined for a subset of enzyme–substrate pairs. In these experiments, 50–200 nM KDAC was reacted with ≥5 substrate concentrations from 10 to 2500 nM and ≥3 timepoints at intervals of 3–20 min were collected for each substrate concentration. Deacetylation was measured using the same method as the endpoint experiments, and KM and kcat were calculated from the observed activity of each reaction as previously described.[18] Activity assays with peptides for verification of substrate preferences were performed as for endpoint experiments, except in a buffer also containing 100 mM KCl. Statistical analysis of the correlation of the presence of particular substrate residues with activity was performed using Fisher’s exact test with a significance threshold of p ≤ 0.05.
In contrast with the peptides tested thus far, which were all derivatives of a single substrate, these panels consisted of peptides derived from human proteins in which the lysine residue is known to be acetylated in cells.[3],[5],[42],[50]−[72] For each enzyme, peptides were included either because they contained an acetyllysine that has been identified as a putative substrate of the KDAC from published cellular studies and/or because the peptide contained a residue that appeared to drive KDAC activity in our analysis. For KDAC6, we observed that of the set of peptides that were tested, six contained tryptophan or tyrosine directly after the acetyllysine. Remarkably, all of these peptides appeared in the top seven most reactive substrates tested (Table 2). Assuming that phenylalanine would behave similarly to tryptophan and tyrosine, we determined that there was a statistically significant correlation between whether or not a peptide was deacetylated by KDAC6 and the presence of tyrosine, tryptophan, or phenylalanine in the +1 position (p = 0.011). […] Thus, our conclusion that the presence of these aromatic residues in the +1 position relative to the acetyllysine is a major factor promoting KDAC6 activity has predictive utility and provides some understanding of the underlying mechanistic basis.

[2] = target: T2, Full-length human KDAC8 (Homo sapiens, UniProt Q9BY41); assay: Activity of KDAC8 with putative substrate peptides (verification of substrate preferences); assay type: biochemical; settings: endpoint, 100 μM peptide, buffer also containing 100 mM KCl; for specific activity, KDAC8 with putative substrates (no activity above limit): limit of reliable detection 0.0004 s^–1; for specific activity, KDAC8 with putative substrates: 50–200 nM KDAC, 25 °C, pH 7.6, 15–60 min, average ± SD, SD
T2 construct: Full-length human KDAC8 (UniProtKB Q9BY41) was recombinantly expressed fused to a C-terminal His6 tag; TEV protease cleavage site (C); His6 (C); made in house; host or cells: Escherichia coli
T2 sequence (Q9BY41 1-377): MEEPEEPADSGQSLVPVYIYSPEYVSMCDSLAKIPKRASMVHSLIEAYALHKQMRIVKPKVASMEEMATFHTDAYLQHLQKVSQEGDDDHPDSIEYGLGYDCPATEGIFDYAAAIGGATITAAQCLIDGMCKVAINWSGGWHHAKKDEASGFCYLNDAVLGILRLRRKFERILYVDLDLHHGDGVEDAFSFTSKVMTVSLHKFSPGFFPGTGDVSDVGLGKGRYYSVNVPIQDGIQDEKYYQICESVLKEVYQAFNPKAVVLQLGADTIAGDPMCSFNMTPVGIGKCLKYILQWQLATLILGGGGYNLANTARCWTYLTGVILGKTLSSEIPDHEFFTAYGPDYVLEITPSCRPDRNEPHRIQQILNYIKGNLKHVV
Description: as §1
We performed a similar experiment for KDAC8, this time using substrates that have been described as potential KDAC8 substrates from cell-based studies or which contained residues in the +1 and/or +2 positions that were identified to enhance activity of KDAC8. […] In addition, we also considered phenylalanine, as we did for KDAC6. Here, we looked at the correlation between peptides having any of these features and activity. While the result was less striking than for KDAC6, there was still a positive correlation between the presence of the identified residues and activity (Table 3; p = 0.048). Although we have identified only a portion of the interactions that likely contribute to substrate selectivity for these enzymes, these interactions correlate with a statistically significant increase in activity with peptides from potential biological substrates in an unbiased background of residues in other positions.

Row | Substance | specific activity, KDAC6 with putative substrates [1] | specific activity, KDAC8 with putative substrates (no activity above limit) [2] | specific activity, KDAC8 with putative substrates [2] | specific activity, KDAC6 with putative substrates (no activity above limit) ([1]; limit of reliable detection 0.0013 s^–1)
1 | LSGK^acEIN [acetyllysine peptide from serine/arginine-rich splicing factor 5 (Q13243)] | 0.024 ± 0.005 s^–1 | – (– indicates no activity above the limit of reliable detection (0.0004 s^–1)) |  | 
2 | GRAK^acYWL [acetyllysine peptide from E3 SUMO-protein ligase RanBP2 (P49792)] | 0.100 ± 0.009 s^–1 |  | 0.007 ± 0.003 s^–1 | 
3 | SDMK^acHWP [acetyllysine peptide from heat shock 70 kDa protein 1A/1B (P0DMV8/P0DMV9)] | 0.013 ± 0.009 s^–1 | – (– indicates no activity above the limit of reliable detection (0.0004 s^–1)) |  | 
4 | GTAK^acSVT [acetyllysine peptide from cellular tumor antigen p53 (P04637)] |  | – (– indicates no activity above the limit of reliable detection (0.0004 s^–1)) |  | – (– indicates no activity above the limit of reliable detection (0.0013 s^–1))
5 | GVGK^acYIN [acetyllysine peptide from RING-type E3 ubiquitin-protein ligase PPIL2 (Q13356)] | 0.055 ± 0.024 s^–1 | – (– indicates no activity above the limit of reliable detection (0.0004 s^–1)) |  | 
6 | SHLK^acAHL [acetyllysine peptide from transcription factor Sp7 (Q8TDD2)] | 0.024 ± 0.013 s^–1 | – (– indicates no activity above the limit of reliable detection (0.0004 s^–1)) |  | 
7 | AFGK^acYCR | 0.20 ± 0.09 s^–1 |  | 0.0029 ± 0.0004 s^–1 | 
